Measured values from US7256187B2, “Rifamycin C-11 oxime derivatives effective against drug-resistant microbes” (Cumbre Pharmaceuticals Inc., priority 2004, dated 2007).
In brackets after ≈: the same amount, converted by molar mass.

What was measured:
Format in all cases: cell-based
[1] = system: Haemophilus influenzae ATCC10211; experiment: MIC, microbroth dilution; conditions: Haemophilus influenzae ATCC10211, rifS; read-out: Antimicrobial activity (MIC)
[2] = system: Staphylococcus aureus ATCC29213; experiment: MIC, microbroth dilution; conditions: Staphylococcus aureus ATCC29213, rifS; read-out: Antimicrobial activity (MIC)
[3] = system: Streptococcus pyogenes ATCC19615; experiment: MIC, microbroth dilution; conditions: Streptococcus pyogenes ATCC19615, rifS; read-out: Antimicrobial activity (MIC)
[4] = system: Streptococcus pneumoniae ATCC6303; experiment: MIC, microbroth dilution; conditions: Streptococcus pneumoniae ATCC6303, rifS; read-out: Antimicrobial activity (MIC)
[5] = system: Staphylococcus aureus ATCC29213 rpoB^H418Y; experiment: microbe, parasite or virus in culture; conditions: Staphylococcus aureus ATCC29213 rpoB^H418Y, rifR; read-out: Antimicrobial activity (MIC)
Description: (§1) Representative compounds were assayed for antimicrobial activity as follows: Minimum Inhibitory Concentrations (“MICs”) were determined by the microbroth dilution method as per NCCLS guidelines (National Committee for Clinical Laboratory Standards. 2000. Methods for dilution antimicrobial susceptibility tests for bacteria that grow aerobically, 5th ed. M7-A5. National Committee for Clinical Laboratory Standards, Wayne, Pa.), except that all growth incubations were conducted at 37° C. Bacterial cultures were tested in the following bacteriological media: S. aureus, S. epidermidis, and E. coli in Cation-Adjusted Mueller-Hinton Broth, S. pneumoniae in THY Broth supplemented with 1 mg/mL catalase under 5% CO2 atmosphere, S. pyogenes in THY Broth, E. faecalis in BHI Broth, H. influenzae in BHI Broth supplemented with 0.75 μL of 1 mg/mL NAD and 150 μL of 1 mg/ml hematin per 5 mL, and M. smegmatis in Middlebrook Broth plus ADC Enrichment.
(§2) S. aureus ATCC 29213 RpoB^H418Y is a rifampin-resistant strain with a mutation in the RpoB gene of RNA polymerase. […] S. aureus EN1252a gyrA^S84L grlA^S80F is a quinolone-resistant strain due to double gene mutations of DNA gyrase and topoisomerase IV.

[6] = system: Staphylococcus aureus EN1252a gyrA^S84L grlA^S80F; experiment: microbe, parasite or virus in culture; conditions: Staphylococcus aureus EN1252a gyrA^S84L grlA^S80F, cipR; read-out: Antimicrobial activity (MIC)
Description: as §1, §2

[7] = system: Staphylococcus aureus ATCC29213 rpoB^D417Y; experiment: microbe, parasite or virus in culture; conditions: Staphylococcus aureus ATCC29213 rpoB^D417Y, rifR; read-out: Antimicrobial activity (MIC)
Description: as §1, §2

[8] = system: Enterococcus faecalis ATCC29212; experiment: MIC, microbroth dilution; conditions: Enterococcus faecalis ATCC29212, rifS; read-out: Antimicrobial activity (MIC)
[9] = system: Mycobacterium smegmatis ATCC700084; experiment: MIC, microbroth dilution; conditions: Mycolicibacterium smegmatis; Mycobacterium smegmatis ATCC700084, rifS; read-out: Antimicrobial activity (MIC)
[10] = system: Escherichia coli ATCC25922; experiment: MIC, microbroth dilution; conditions: Escherichia coli ATCC25922, rifS; read-out: Antimicrobial activity (MIC)
[11] = system: Staphylococcus epidermidis ATCC12228; experiment: MIC, microbroth dilution; conditions: Staphylococcus epidermidis ATCC12228, rifS; read-out: Antimicrobial activity (MIC)

| Compound | MIC [1] | MIC [2] | MIC [3] | MIC [4] | MIC [5] | MIC [6] | MIC [7] | MIC [8] | MIC [9] | MIC [10] | MIC [11] |
| --- | --- | --- | --- | --- | --- | --- | --- | --- | --- | --- | --- |
| COCCOCO/N=C1/c2c3c(C)c(O)c4c2C(=O)C=C(NC(=O)/C(C)=C\C=C\[C@H](C)[C@H](O)[C@@H](C)[C@@H](O)[C@@H](C)[C@H](OC(C)=O)[C@H](C)[C@@H](OC)/C=C/O[C@@]1(C)O3)C4=O [Example 10, 11-Deoxy-11-methoxyethoxymethoxyiminorifamycin S] | 0.03 to 2 µg/mL (≈ 0.0376 to 2.5 µM) | 0.004 to 0.5 µg/mL (≈ 0.00501 to 0.626 µM) | 0.0005 to 0.063 µg/mL (≈ 0.000626 to 0.0789 µM) | 0.0002 to 0.125 µg/mL (≈ 0.00025 to 0.156 µM) | 0.125 to 16 µg/mL (≈ 0.156 to 20 µM) | 0.004 to 0.5 µg/mL (≈ 0.00501 to 0.626 µM) | 0.25 to 32 µg/mL (≈ 0.313 to 40.1 µM) | 2 to 32 µg/mL (≈ 2.5 to 40.1 µM) | 0.5 to 64 µg/mL (≈ 0.626 to 80.1 µM) | 0.125 to 8 µg/mL (≈ 0.156 to 10 µM) | 0.0005 to 0.063 µg/mL (≈ 0.000626 to 0.0789 µM) |
| CO/N=C1/c2c3c(C)c(O)c4c2C(=O)C(N2CCOCC2)=C(NC(=O)/C(C)=C\C=C\[C@H](C)[C@H](O)[C@@H](C)[C@@H](O)[C@@H](C)[C@H](OC(C)=O)[C@H](C)[C@@H](OC)/C=C/O[C@@]1(C)O3)C4=O [Example 35, 11-Deoxy-3-(morpholin-4-yl)-11-methoxyiminorifamycin S] | 0.03 to 2 µg/mL (≈ 0.037 to 2.47 µM) | 0.004 to 0.5 µg/mL (≈ 0.00494 to 0.617 µM) | 0.0005 to 0.063 µg/mL (≈ 0.000617 to 0.0778 µM) | 0.0002 to 0.125 µg/mL (≈ 0.000247 to 0.154 µM) | 0.125 to 16 µg/mL (≈ 0.154 to 19.8 µM) | 0.004 to 0.5 µg/mL (≈ 0.00494 to 0.617 µM) | 0.25 to 32 µg/mL (≈ 0.309 to 39.5 µM) | 2 to 32 µg/mL (≈ 2.47 to 39.5 µM) | 0.5 to 64 µg/mL (≈ 0.617 to 79 µM) | 0.125 to 8 µg/mL (≈ 0.154 to 9.88 µM) | 0.0005 to 0.063 µg/mL (≈ 0.000617 to 0.0778 µM) |
| CO[C@H]1/C=C/O[C@@]2(C)Oc3c(C)c(O)c4c(c3/C2=N/OCCN2CCN(C)CC2)C(=O)C=C(NC(=O)/C(C)=C\C=C\[C@H](C)[C@H](O)[C@@H](C)[C@@H](O)[C@@H](C)[C@H](OC(C)=O)[C@@H]1C)C4=O [Example 22, 11-Deoxy-11-[2-(4-methylpiperazin-1-yl)ethoxyimino]rifamycin S] | 0.03 to 2 µg/mL (≈ 0.0358 to 2.39 µM) | 0.004 to 0.5 µg/mL (≈ 0.00478 to 0.597 µM) | 0.0005 to 0.063 µg/mL (≈ 0.000597 to 0.0753 µM) | 0.0002 to 0.125 µg/mL (≈ 0.000239 to 0.149 µM) | 0.125 to 16 µg/mL (≈ 0.149 to 19.1 µM) | 0.004 to 0.5 µg/mL (≈ 0.00478 to 0.597 µM) | 0.25 to 32 µg/mL (≈ 0.299 to 38.2 µM) | 2 to 32 µg/mL (≈ 2.39 to 38.2 µM) | 0.5 to 64 µg/mL (≈ 0.597 to 76.5 µM) | 0.125 to 8 µg/mL (≈ 0.149 to 9.56 µM) | 0.0005 to 0.063 µg/mL (≈ 0.000597 to 0.0753 µM) |
| CO[C@H]1/C=C/O[C@@]2(C)Oc3c(C)c(O)c4c(c3/C2=N/OCCN2CCC(O)CC2)C(=O)C=C(NC(=O)/C(C)=C\C=C\[C@H](C)[C@H](O)[C@@H](C)[C@@H](O)[C@@H](C)[C@H](OC(C)=O)[C@@H]1C)C4=O [Example 23, 11-Deoxy-11-[2-(4-hydroxypiperadin-1-yl)ethoxyimino]rifamycin S] | 0.03 to 2 µg/mL (≈ 0.0358 to 2.39 µM) | 0.004 to 0.5 µg/mL (≈ 0.00477 to 0.597 µM) | 0.0005 to 0.063 µg/mL (≈ 0.000597 to 0.0752 µM) | 0.0002 to 0.125 µg/mL (≈ 0.000239 to 0.149 µM) | 0.125 to 16 µg/mL (≈ 0.149 to 19.1 µM) | 0.004 to 0.5 µg/mL (≈ 0.00477 to 0.597 µM) | 0.25 to 32 µg/mL (≈ 0.298 to 38.2 µM) | 2 to 32 µg/mL (≈ 2.39 to 38.2 µM) | 0.5 to 64 µg/mL (≈ 0.597 to 76.4 µM) | 0.125 to 8 µg/mL (≈ 0.149 to 9.55 µM) | 0.0005 to 0.063 µg/mL (≈ 0.000597 to 0.0752 µM) |
| CO[C@H]1/C=C/O[C@@]2(C)Oc3c(C)c(O)c4c(c3/C2=N/O)C(=O)C=C(NC(=O)/C(C)=C\C=C\[C@H](C)[C@H](O)[C@@H](C)[C@@H](O)[C@@H](C)[C@H](OC(C)=O)[C@@H]1C)C4=O [Example 7, 11-Deoxy-11-hydroxyiminorifamycin S] | 0.03 to 2 µg/mL (≈ 0.0422 to 2.81 µM) | 0.004 to 0.5 µg/mL (≈ 0.00563 to 0.703 µM) | 0.0005 to 0.063 µg/mL (≈ 0.000703 to 0.0886 µM) | 0.0002 to 0.125 µg/mL (≈ 0.000281 to 0.176 µM) | 0.125 to 16 µg/mL (≈ 0.176 to 22.5 µM) | 0.004 to 0.5 µg/mL (≈ 0.00563 to 0.703 µM) | 0.25 to 32 µg/mL (≈ 0.352 to 45 µM) | 2 to 32 µg/mL (≈ 2.81 to 45 µM) | 0.5 to 64 µg/mL (≈ 0.703 to 90 µM) | 0.125 to 8 µg/mL (≈ 0.176 to 11.3 µM) | 0.0005 to 0.063 µg/mL (≈ 0.000703 to 0.0886 µM) |
